Laboratory results from patent publication US10351530B2, “Arylcyclohexyl pyrazoles as NRF2 regulators” (GlaxoSmithKline Intellectual Property Development Limited, priority 2015, dated 2019).

Legend:
NRF2/Keap1 = biological target: T1, NRF2/Keap1 (Homo sapiens, UniProt Q14145); assay: NRF2-Keap1 TR-FRET Low Protein Assay (full length NRF2 and full length Keap1); assay type: binding; settings: low protein: 1.25 nM Keap1 FlagHis, 2.5 nM biotin-NRF2 added
T1 construct: full length NRF2 protein and full length Keap1 protein (Keap1 exists a dimer) are used
Source text: In the NRF2-Keap1 TR-FRET (time-resolved fluorescence resonance energy transfer) low protein assay, full length NRF2 protein and full length Keap1 protein (Keap1 exists a dimer) are used. The assay detects a compound's ability to displace the binding of Keap1 FlagHis with biotinylated Avi-NRF2 protein. Biotin-NRF2 binds to streptavidin-europium (a component of the detection mix) and Keap1 FlagHis is recognized by anti-Flag APC (allophycocyanin) antibody (also a component of the detection mix). If binding occurs between the two proteins, there will be an energy transfer from the Eu+3 (donor) at 615 nm to the APC (acceptor) at 665 nm. A potential NRF2 inhibitor will cause a reduction in the TR-FRET signal by interfering with the binding of Keap1 to NRF2.
Ten nanoliters of 100× compound dose response curves (serial 3-fold dilutions) in DMSO are stamped using an Echo liquid handling system (Labcyte) into 384-well, low volume, black assay plates (Greiner, #784076), with DMSO in columns 6 and 18. An additional 90 nl DMSO is added to each well, to bring the total volume to 100 nl per well. The top concentration of compound is located in columns 1 and 13, with the serial dilutions going across the row. All reagents are diluted in assay buffer (50 mM Tris, pH 8.0, 5 mM MgCl2, 100 mM NaCl, 0.005% BSA, 1 mM DTT, and 2 mM CHAPS. The BSA, DTT, and CHAPS are added to the assay buffer on the day of assay. Using a Multidrop Combi (Thermo Electron Corporation) equipped with a metal tip dispenser, 5 ul of 1.25 nM Keap1 FlagHis protein is added to all wells of the compound plate, with the exception of the wells in column 18. Wells in column 18 receive 5 ul of assay buffer instead. Plates are centrifuged at 500 rpm for 1 minute, covered with a plate lid, and incubated at 37° C. for 2.25 hours. Plates are then removed from the incubator and allowed to cool to RT for 15 minutes. Five microliters of 2.5 nM biotin-NRF2 protein is then added to all wells of the plates and the plates are spun at 500 rpm for 1 minute, followed by incubating at 4° C. for 1.25 hours. The plates are then allowed to warm to RT for 15 minutes, followed by the addition of 10 ul of detection mix (1 nM Streptavidin Eu+ W1024 and 5 ug/ml mouse anti-DYKDDDDK IgG conjugated to SureLight APC antibody; both from Columbia Biosciences) to all wells. Plates are spun at 500 rpm for 1 minute, incubated for 1 hour at RT, and read on an Envision plate reader using a 320 nm excitation filter and 615 nm and 665 nm emission filters. Compound response (% inhibition) and potency (pIC50) are calculated based on the ratio of the two emissions (665 nm/615 nm) and then the transformed data is normalized against controls in the assay (control 1=1% DMSO in the presence of NRF2 and Keap1 protein and control 2=1% DMSO in the presence of only the NRF2 protein). Data analysis is handled using the software package Abase XE (Surrey, United Kingdom). The % inhibition values are calculated from the ratio (transformed) data by the equation: 100−(100*(compound response-average control 2)/(average control 1−average control 2)). For calculation of pIC50s, Abase XE uses a four parameter equation.

[1] = test system: NQO1 specific enzyme activity in BEAS-2B cells; assay: BEAS-2B NQO1 MTT Assay; assay type: cell-based; settings: Homo sapiens, BEAS-2B, 48 h, NQO1 specific activity induction
Method in brief: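 BEAS-2B cells exposed to compound for 48 h at 37 °C, 5% CO2, then lysed. NQO1 activity in crude lysate read kinetically by MTT cocktail absorbance at 570 nm over 30 min. pEC50 from ΔOD/min versus log concentration, 3-parameter fit.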

Keap1/NRF2 = biological target: T2, Keap1/NRF2 (Homo sapiens, UniProt Q14145); assay: NRF2-Keap1 FP Assay (Kelch domain (321-609) of Keap1, TAMRA-labeled NRF2 ETGE peptide); assay type: binding; settings: Keap1 (321-609) 20 nM, Tamra labeled peptide 8 nM
T2 construct: Keap1 (321-609) is diluted to 40 nM (2×) in 1× assay buffer
Method in brief: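 Fluorescence polarization competition: Keap1 Kelch (321-609) at 20 nM final and TAMRA-ETGE 16-mer peptide at 8 nM final with 3-fold compound dilutions, 1 h room temperature in Tris pH 8.0 buffer (NaCl, MgCl2, DTT, CHAPS, BSA). mP normalized to protein+peptide and peptide-alone controls; pIC50 by four-parameter fit.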

T2 sequence (Q14145 321-609): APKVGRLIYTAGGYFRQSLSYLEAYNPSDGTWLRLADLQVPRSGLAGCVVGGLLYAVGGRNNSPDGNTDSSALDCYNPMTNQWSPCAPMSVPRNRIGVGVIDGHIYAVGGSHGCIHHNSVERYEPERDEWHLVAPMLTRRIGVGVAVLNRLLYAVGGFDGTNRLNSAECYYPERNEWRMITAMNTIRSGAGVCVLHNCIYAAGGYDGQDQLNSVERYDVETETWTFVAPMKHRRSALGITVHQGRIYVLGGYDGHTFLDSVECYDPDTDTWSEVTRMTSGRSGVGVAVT
T1 sequence (Q14145 whole entry): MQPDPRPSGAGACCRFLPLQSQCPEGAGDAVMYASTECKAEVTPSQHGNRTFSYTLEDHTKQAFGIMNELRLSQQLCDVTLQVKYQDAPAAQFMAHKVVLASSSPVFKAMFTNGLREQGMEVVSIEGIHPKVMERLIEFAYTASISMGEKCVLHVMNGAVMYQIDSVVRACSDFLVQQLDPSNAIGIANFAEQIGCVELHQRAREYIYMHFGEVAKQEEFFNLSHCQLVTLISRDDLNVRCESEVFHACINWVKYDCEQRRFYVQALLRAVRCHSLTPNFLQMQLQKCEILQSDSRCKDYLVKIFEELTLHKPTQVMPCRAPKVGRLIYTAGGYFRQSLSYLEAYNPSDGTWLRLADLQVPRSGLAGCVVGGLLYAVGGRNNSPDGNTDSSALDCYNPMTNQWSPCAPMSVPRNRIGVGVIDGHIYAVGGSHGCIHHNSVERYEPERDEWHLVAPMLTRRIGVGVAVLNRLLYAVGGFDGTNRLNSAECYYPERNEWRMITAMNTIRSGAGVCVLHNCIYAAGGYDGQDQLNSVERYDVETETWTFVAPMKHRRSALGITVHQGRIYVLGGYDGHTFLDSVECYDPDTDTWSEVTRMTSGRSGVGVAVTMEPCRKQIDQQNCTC

| IC50 (NRF2/Keap1) | IC50 (Keap1/NRF2) | Structure (SMILES) | EC50 [1] |
| --- | --- | --- | --- |
| 0.01 to 0.1 µM | 0.01 to 0.1 µM | Cn1cc([C@@H]2C[C@H]2c2c(C(=O)O)cnn2-c2cccc(N3CCCC(CCC4CCCCC4)C3)c2)nn1 (stereo partly drawn) [Example 35, 1-(3-(3-(2-cyclohexylethyl)piperidin-1-yl)phenyl)-5-((1R,2R)-2-(1-methyl-1H-1,2,3-triazol-4-yl)cyclopropyl)-1H-pyrazole-4-carboxylic Acid] | 0.001 to 0.01 µM |
| 0.01 to 0.1 µM | 0.01 to 0.1 µM | Cn1cc([C@@H]2C[C@H]2c2c(C(=O)O)cnn2-c2cccc(N3CCC[C@H](CCC4CCCCC4)C3)c2)nn1 [Example 36c, 1-(3-((S)-3-(2-Cyclohexylethyl)piperidin-1-yl)phenyl)-5-((1R,2R)-2-(1-methyl-1H-1,2,3-triazol-4-yl)cyclopropyl)-1H-pyrazole-4-carboxylic Acid] | 0.01 to 0.1 µM |

| Structure (SMILES) | IC50 (NRF2/Keap1) | IC50 (Keap1/NRF2) | EC50 [1] |
| --- | --- | --- | --- |
| Cn1cc([C@@H]2C[C@H]2c2c(C(=O)O)cnn2-c2cccc(C3CCCN(C(=O)OC(C)(C)C)C3)c2)nn1 (stereo partly drawn) [Example 26, 1-(3-(1-(tert-butoxycarbonyl)piperidin-3-yl)phenyl)-5-((1R,2R)-2-(1-methyl-1H-1,2,3-triazol-4-yl)cyclopropyl)-1H-pyrazole-4-carboxylic Acid] | 0.01 to 0.1 µM | 0.01 to 0.1 µM | 1 to 10 µM |
